# Where a name gives a salt, the structure may show the parent alone.
# Experiments:
# PARP-1 enzyme = biological target: T1, PARP-1 enzyme (Homo sapiens, UniProt P09874); assay: in vitro filtration assay for PARP-1 inhibitory activity; type: biochemical; conditions: [32P]-NAD, histones, nicked DNA; dose-response 10^-5 M to 10^-8 M; read-out: in vitro filter assay PARP-1 pIC50 (converted)
# T1 construct: made in house
# Method: In Vitro Filtration Assay for PARP-1 Inhibitory Activity
# Compounds of the present invention were tested in an in vitro filtration assay assessing PARP-1 activity (triggered in the presence of nicked DNA) by means of its histone poly (ADP-ribosylation activity using [^32P]-NAD as ADP-ribosyl donor. The radioactive ribosylated histones were precipitated by trichloroacetic acid (TCA) in 96-well filterplates and the incorporated [^32P] measured using a scintillation counter
# A mixture of histones (stock solution: 5 mg/ml in H2O), NAD^+ (stock solution: 100 mM in H2O), and [^32P]-NAD^+ in incubation buffer (50 mM Tris/HCl, pH 8; 0.2 mM DTT; 4 mM MgCl2) was made. A mixture of the PARP-1 enzyme (5-10 μg/ml) and nicked DNA was also made. The nicked DNA was prepared as described in the in vitro SPA for PARP-1 inhibitory activity. Seventy-five μl of the PARP-1 enzyme/DNA mixture together with 1 μl of compound in DMSO and 25 μl of histones-NAD^+/[^32P]-NAD^+ mixture was added per well of a 96-well filterplate (0.45 μm, supplier Millipore). The final concentrations in the incubation mixture were 2 μg/ml for the histones, 0.1 mM for the NAD^+, […] (0.5 μC) for the [^32P]-NAD^+ and 2 μg/ml for the nicked DNA. Plates were incubated for 15 min. at room temperature and the reaction was terminated by the addition of 10 μl ice cold 100% TCA followed by the addition of 10 μl ice-cold BSA solution (1% in H2O). The protein fraction was allowed to precipitate for 10 min. at 4° C. and plates were vacuum filtered. The plates were subsequently washed with, for each well, 1 ml of 10% ice cold TCA, 1 ml of 5% ice cold TCA and 1 ml of 5% TCA at room temperature. Finally 100 μl of scintillation solution (Microscint 40, Packard) was added to each well and the plates were transferred to a TopCountNXT™ (supplier: Packard) for scintillation counting and values were expressed as counts per minute (cpm). For each experiment, controls (containing PARP-1 enzyme and DMSO without compound), a blank incubation (containing DMSO but no PARP-1 enzyme or compound) and samples (containing PARP-1 enzyme and compound dissolved in DMSO) were run in parallel. All compounds tested were dissolved and eventually further diluted in DMSO. In first instance, compounds were tested at a concentration of 10^−5M. […] In each test, the blank value was subtracted from both the control and the sample values. The control sample represented maximal PARP-1 enzyme activity. For each sample, the amount of cpm was expressed as a percentage of the mean cpm value of the controls. When appropriate, IC50-values (concentration of the drug, needed to reduce the PARP-1 enzyme activity to 50% of the control) were computed using linear interpolation between the experimental points just above and below the 50% level. Herein the effects of test compounds are expressed as pIC50 (the negative log value of the IC50-value). As a reference compound, 4-amino-1,8-naphthalimide was included to validate the filtration assay.
# TANK-2 enzyme = biological target: T2, TANK-2 enzyme (Homo sapiens, UniProt Q9H2K2); assay: in vitro Scintillation Proximity Assay (SPA) for TANK-2 inhibitory activity; type: biochemical
# T2 construct: His tag (inferred from capture on a Ni-coated plate); made in house
# T2 sequence (Q9H2K2 1-1166): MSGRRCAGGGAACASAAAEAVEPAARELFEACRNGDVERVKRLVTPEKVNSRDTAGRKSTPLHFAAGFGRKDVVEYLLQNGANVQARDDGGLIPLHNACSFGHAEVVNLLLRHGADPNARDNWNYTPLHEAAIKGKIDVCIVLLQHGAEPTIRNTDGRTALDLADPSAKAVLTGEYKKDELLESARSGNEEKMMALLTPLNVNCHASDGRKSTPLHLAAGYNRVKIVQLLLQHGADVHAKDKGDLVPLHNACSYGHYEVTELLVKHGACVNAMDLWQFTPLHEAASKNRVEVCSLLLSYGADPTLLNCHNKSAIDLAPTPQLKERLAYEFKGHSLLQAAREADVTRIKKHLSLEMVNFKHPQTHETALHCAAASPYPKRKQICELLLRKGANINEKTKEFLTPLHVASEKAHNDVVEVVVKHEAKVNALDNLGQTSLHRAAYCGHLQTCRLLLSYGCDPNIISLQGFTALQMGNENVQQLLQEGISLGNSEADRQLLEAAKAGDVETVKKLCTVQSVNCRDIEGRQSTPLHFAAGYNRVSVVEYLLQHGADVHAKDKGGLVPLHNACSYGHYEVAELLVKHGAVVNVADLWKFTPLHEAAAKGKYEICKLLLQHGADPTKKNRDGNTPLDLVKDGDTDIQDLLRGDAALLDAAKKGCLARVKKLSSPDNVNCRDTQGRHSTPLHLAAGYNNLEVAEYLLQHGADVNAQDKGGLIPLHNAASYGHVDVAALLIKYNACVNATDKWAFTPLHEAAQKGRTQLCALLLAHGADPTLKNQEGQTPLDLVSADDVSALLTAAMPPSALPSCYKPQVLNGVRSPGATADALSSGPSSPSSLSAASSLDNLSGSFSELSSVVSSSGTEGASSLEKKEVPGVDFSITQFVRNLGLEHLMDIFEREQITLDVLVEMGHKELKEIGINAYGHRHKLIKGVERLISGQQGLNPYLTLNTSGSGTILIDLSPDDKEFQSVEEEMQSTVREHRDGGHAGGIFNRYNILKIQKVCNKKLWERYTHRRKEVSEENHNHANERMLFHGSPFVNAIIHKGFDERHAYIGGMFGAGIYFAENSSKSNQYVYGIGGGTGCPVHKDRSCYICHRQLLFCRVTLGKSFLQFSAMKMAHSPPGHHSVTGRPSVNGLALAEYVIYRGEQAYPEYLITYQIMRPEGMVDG
# Method: In Vitro Scintillation Proximity Assay (SPA) for Tank-2 Inhibitory Activity
# Compounds of the present invention were tested in an in vitro assay based on SPA technology with Ni Flash plates (96 or 384 well).
# In principle, the assay relies upon SPA technology for the detection of auto-poly(ADP-ribosylation of TANK-2 protein using [^3H]-nicotinamide adenine dinucleotide ([^3H]-NAD^+) as ADP-ribosyl donor.
# A stock solution of [^3H]-NAD^+/NAD was made by adding 64.6 μl of [^3H]-NAD^+ (0.1 mCi/ml, supplier: Perkin Elmer) and 46.7 μl NAD-stock (10.7 mM, stored at −20° C., supplier Roche) to 1888.7 μl assay buffer (60 mM Tris/HCl, pH 7.4; 0.9 mM DTT; 6 mM MgCl2). The TANK-2 enzyme was produced as described in EP1238063.60 μl of assay buffer, together with 1 μl of compound in DMSO, 20 μl of [^3H]-NAD^+/NAD and 20 μl of TANK-2 enzyme (final concentration 6 μg/ml) was added per well into a 96-well Ni-coated flash plate (Perkin Elmer). After incubation of the mixture for 120 min. at room temperature, the reaction was terminated by adding 60 μl of stopsolution (42.6 mg NAD in 6 ml H2O). The plates were covered with a plate sealer and placed in a TopCountNXT™ (Packard) for scintillation counting. Values were expressed as counts per minute (cpm). For each experiment, controls (containing TANK-2 enzyme and DMSO without compound), a blank incubation (containing DMSO but no TANK-2 enzyme or compound) and samples (containing TANK-2 enzyme and compound dissolved in DMSO) were run in parallel. All compounds tested were dissolved and eventually further diluted in DMSO. […] In each test, the blank value was subtracted from both the control and the sample values. The control sample represented maximal TANK-2 enzyme activity. For each sample, the amount of cpm was expressed as a percentage of the mean cpm value of the controls. When appropriate, IC50-values (concentration of the drug, needed to reduce the TANK-2 enzyme activity to 50% of the control) were computed using linear interpolation between the experimental points just above and below the 50% level. Herein the effects of test compounds are expressed as pIC50 (the negative log value of the IC50-value). As reference compounds, 3-aminobenzamide and 4-amino-1,8-naphthalimide were included to validate the SPA assay. Herein the assay was described using 96-well plates. In the assay using 384-well plates the same final concentrations were used and volumes were adapted.
# T1 sequence (P09874 whole entry): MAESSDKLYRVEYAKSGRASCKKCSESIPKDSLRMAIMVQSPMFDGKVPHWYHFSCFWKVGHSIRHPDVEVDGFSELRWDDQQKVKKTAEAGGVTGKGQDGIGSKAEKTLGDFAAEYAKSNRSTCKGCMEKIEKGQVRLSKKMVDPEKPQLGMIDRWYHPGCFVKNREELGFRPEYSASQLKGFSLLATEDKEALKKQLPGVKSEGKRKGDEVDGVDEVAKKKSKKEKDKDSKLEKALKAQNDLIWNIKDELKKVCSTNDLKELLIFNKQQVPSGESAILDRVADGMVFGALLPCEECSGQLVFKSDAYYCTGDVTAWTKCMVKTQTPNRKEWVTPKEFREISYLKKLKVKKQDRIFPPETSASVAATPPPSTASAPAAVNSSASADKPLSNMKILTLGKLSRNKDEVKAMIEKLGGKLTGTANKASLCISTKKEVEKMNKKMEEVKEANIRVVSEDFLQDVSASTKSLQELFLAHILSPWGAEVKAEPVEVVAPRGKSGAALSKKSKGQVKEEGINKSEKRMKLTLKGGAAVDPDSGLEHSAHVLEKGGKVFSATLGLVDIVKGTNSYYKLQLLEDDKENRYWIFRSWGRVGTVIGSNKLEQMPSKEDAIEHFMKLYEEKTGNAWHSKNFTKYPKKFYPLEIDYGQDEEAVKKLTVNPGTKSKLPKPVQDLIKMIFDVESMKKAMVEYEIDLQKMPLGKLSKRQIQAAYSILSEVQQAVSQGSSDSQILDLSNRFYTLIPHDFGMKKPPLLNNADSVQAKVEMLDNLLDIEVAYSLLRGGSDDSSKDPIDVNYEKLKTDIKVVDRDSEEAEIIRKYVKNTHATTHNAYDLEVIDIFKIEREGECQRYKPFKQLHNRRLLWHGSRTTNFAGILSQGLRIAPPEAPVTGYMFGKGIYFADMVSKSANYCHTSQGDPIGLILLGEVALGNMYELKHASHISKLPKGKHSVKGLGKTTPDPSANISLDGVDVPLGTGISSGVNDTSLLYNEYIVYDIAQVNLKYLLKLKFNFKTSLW
IC50 (PARP-1 enzyme) [nM],IC50 (TANK-2 enzyme) [nM],melting point [°C],Compound
45.4,–,–,O=c1[nH]nc(C2CCN(C[C@H](O)[C@@H]3CCc4ccccc4O3)CC2)c2ccccc12 (relative stereo) [Compound 28]
217,> 10000,–,O=c1[nH]nc(NC2CCNCC2)c2cccc([N+](=O)[O-])c12 [Compound 40]
109,9250,–,N#CCN1CCN(c2n[nH]c(=O)c3ccccc23)CC1 [Compound 32]
37.7,> 10000,–,O=c1[nH]nc(NC2CCNCC2)c2ccccc12 [Compound 41]
56.8,> 10000,–,CCOC(=O)N1CCC(CCNc2n[nH]c(=O)c3ccccc23)CC1 [Compound 43]
154,> 10000,–,NCCN1CCC(Nc2n[nH]c(=O)c3ccccc23)CC1 [Compound 33]
109,5430,–,O=c1[nH]nc(N2CCC(NCc3ccccc3)CC2)c2ccccc12 [Compound 45]
148,> 10000,–,O=c1[nH]nc(NC2CC(Cc3ccccc3)NC(Cc3ccccc3)C2)c2ccccc12 (stereo not drawn) [Compound 38]
182,6370,–,CC(C)(C)OC(=O)N1CCC(CNc2n[nH]c(=O)c3ccccc23)CC1 [Compound 47]
38.6,–,–,O=c1[nH]nc(C2CCN(c3ccc(Cl)nn3)CC2)c2ccccc12 [Compound 62]
–,–,171.8,Clc1nnc(NC2CCN(Cc3ccccc3)C2)c2ccccc12 (stereo not drawn) (as salt: HCl) (hydrate or solvate) [Compound 12]
–,> 10000,–,Clc1cccc(N2CCN(c3nnc(Cl)c4ccccc34)CC2)c1 [Compound 80]
–,> 10000,–,COc1ccccc1N1CCN(c2nnc(Cl)c3ccccc23)CC1 [Compound 84]
83.8,3130,–,O=c1[nH]nc(NCC2CCNCC2)c2ccccc12 [Compound 36]
–,–,> 300,Nc1ccc2c(=O)[nH]nc(NC3CCNCC3)c2c1 (as salt: HCl) (hydrate or solvate) [Compound 14]
–,–,253,N#CC1CCN(c2n[nH]c(=O)c3ccccc23)CC1 [Compound 18]
–,–,227.6,O=c1[nH]nc(C2CCN(CCCOc3ccc(F)cc3)CC2)c2ccccc12 (as salt: HCl) [Compound 13]
17.3,> 10000,–,O=c1[nH]nc(C2CCN(CC(O)COc3ccc(F)c(F)c3)CC2)c2ccccc12 (stereo not drawn) [Compound 26]
–,2790,–,Cc1cccc(N2CCN(c3nnc(Cl)c4ccccc34)CC2)c1 [Compound 81]
177,> 10000,–,"O=c1[nH]nc(N[C@H]2CCN[C@@H](Cc3ccccc3)C2)c2ccccc12 (single isomer, unassigned) [Compound 35]"
119,> 10000,–,NC1CCN(c2n[nH]c(=O)c3ccccc23)CC1 [Compound 31]
–,> 10000,–,FC(F)(F)c1cccc(N2CCN(c3nnc(Cl)c4ccccc34)CC2)c1 [Compound 79]
–,> 10000,199,CCOC(=O)N1CCC(Nc2nnc(Cl)c3ccc([N+](=O)[O-])cc23)CC1 [Compound 20]
29.2,–,–,COc1ccc(CCN2CCC(c3n[nH]c(=O)c4ccccc34)CC2)cc1 [Compound 64]
766,> 10000,–,Nc1ccc2c(=O)[nH]nc(NC3CCNCC3)c2c1 [Compound 14]
179,> 10000,–,O=c1[nH]nc(NCCNC2CCN(Cc3ccccc3)CC2)c2ccccc12 [Compound 42]
91.8,–,–,CN(c1cc2ccccc2s1)C1CCN(c2n[nH]c(=O)c3ccccc23)CC1 [Compound 54]
61.8,> 10000,–,O=c1[nH]nc(NCCC2CCNCC2)c2ccccc12 [Compound 37]
213,> 10000,–,O=c1[nH]nc(NC2CCNCC2)c2cc(Cl)ccc12 [Compound 39]

Compound,IC50 (PARP-1 enzyme) [nM],IC50 (TANK-2 enzyme) [nM],melting point [°C]
CCOC(=O)N1CC[C@H](Nc2nnc(Cl)c3ccccc23)C[C@@H]1Cc1ccccc1 [Compound 19],–,> 10000,161
O=c1[nH]nc(N[C@@H]2C[C@H]3CC[C@@H](C2)N3)c2ccccc12 (as salt: HBr) [Compound 15],–,–,> 299
O=c1[nH]nc(N[C@@H]2C[C@H]3CC[C@@H](C2)N3CCCC(c2ccc(F)cc2)c2ccc(F)cc2)c2ccccc12 (hydrate or solvate) [Compound 3],–,–,164.4
O=c1[nH]nc(C2CCNCC2)c2ccccc12 (hydrate or solvate) [Compound 4],–,–,264.9
